{
  "source": "patent US8343892B2",
  "about": "(priority 2003, dated 2013)",
  "tested_on": "Phytophthora infestans",
  "format": "in vivo",
  "conditions": "tomato (Marmande), 48 h preventive, assessed 5 days after contamination; lower line = chlorothalonil dose (in mixture or alone)",
  "data": [
    {"smiles": "N#Cc1c(Cl)c(Cl)c(Cl)c(C#N)c1Cl", "note": "[Chlorothalonil, tetrachloroisophthalonitrile]", "values": [
      {"measurement": "ED70, Practical doses for 70% efficacy: dose of chlorothalonil", "result": 16.1, "unit": "µg/mL"},
      {"measurement": "ED90, Practical doses for 90% efficacy: dose of chlorothalonil", "result": 36.7, "unit": "µg/mL"}
    ]}
  ]
}
